Results on four compounds are retold here after patent publication US20140094413A1, “HEPATOCYTE GROWTH FACTOR (HGF) MIMICS AS THERAPEUTIC AGENTS” (WASHINGTON STATE UNIVERSITY, priority 2012, published 2014).

The target of experiment [1] is T1, human HGF (Homo sapiens, UniProt P14210).
T1 construct: purchased R&D Systems (Minneapolis, Minn.)
The experiment can be described thus: HGF binding, competition with 3H-Hinge. The conditions noted are these: 1.25 ng HGF, 40 min at 37° C.; N=9. As for the experimental part: The binding of 6-AH analogs to HGF was assessed by competition using a soluble binding assay. 250 μl of PBS containing human HGF (1.25 ng) were incubated with ^3H-Hinge, the central dimerization domain of HGF, in the presence of varying concentrations of 6-AH analogs between 10^−13 M to 10^−7M (half-log dilutions) for 40 min at 37° C. The incubates were then spun through Bio-Gel P6 spin columns (400 μl packed volume) for 1 min to separate free and bound ^3H-Hinge and the eluent was collected. Five milliliters of scintillation fluid was added to the eluent, which contained the HGF bound ^3H-Hinge, and was then counted using scintillation counter. Total disintegrations per minute of bound ^3H-Hinge were calculated based on machine counting efficiency. The Ki values for the binding of the peptides were determined using the Prism 5. Competition binding curves were performed in triplicate.

Another experiment has as its system Met. The experiment can be described thus: Inhibition of HGF-dependent Met phosphorylation in HEK293 cells. It counts as cell-based, human. The conditions noted are these: 10 min with HGF+/− analog. The protocol:
HEK293 cells were seeded in 6 well tissue culture plates and grown to 95% confluency in DMEM containing 10% FBS. The cells were serum deprived for 24 h prior to the treatment to reduce the basal levels of phospho-Met. Following serum starvation, cocktails comprised of vehicle and HGF with/without 6-AH analogs were prepared and pre-incubated for 30 min at room temperature. The cocktail was then added to the cells for 10 min to stimulate the Met receptor and downstream proteins. Cells were harvested using RIPA lysis buffer (Millipore; Billerica, Mass.) fortified with phosphatase inhibitor cocktails 1 and 2 (Sigma-Aldrich; St. Louis, Mo.). The lysate was clarified by centrifugation at 15,000 nx g for 15 min, protein concentrations were determined using the BCA total protein assay (Pierce), and then appropriate volumes of the lysates were diluted with 2× reducing Laemmli buffer and heated for ten min at 95° C. Samples containing identical amounts of protein were resolved using SDS-PAGE (Criterion, BioRad Laboratories), transferred to nitrocellulose, and blocked in Tris-buffered saline (TBS) containing 5% milk for 1 h at room temperature. The phospho-Met antibody were added to the blocking buffer at a final concentration of 1:1000 and incubated at 4° C. overnight with gentle agitation. The membranes were then washed several times with water and TBS ([…], 0.05% Tween-20), a 1:5000 dilution of horseradish-peroxidase conjugated goat anti-rabbit antiserum was added, and the membranes further incubated for 1 h at room temperature. Proteins were visualized using the Supersignal West Pico Chemiluminescent Substrate system (Pierce, Fenton, Mo.) and molecular weights determined by comparison to protein ladders (BenchMark, Invitrogen, and Kaleidoscope, BioRad). Film images were digitized and analyzed using a UVP phosphoimager.

Experiment [2] addresses T1, human HGF. Description: HGF dimerization. It is filed as biochemical. To be noted: analogs at 10^−10 M, heparin, 30 minute incubation. The protocol:
HGF dimerization was assessed using PAGE followed by silver staining (Kawas et al., 2011). Human HGF at a concentration of 0.08 ng/μl with or without 6-AH analogs was incubated with heparin at a final concentration of 5 μg/ml. Loading buffer was then added to each sample and the mixture separated by native PAGE using gradient Criterion XT precast gels (4-12% Bis-Tris; Biorad Laboratories, Hercules, Calif.). Next the gel was silver stained for the detection of the HGF monomers and dimers. Bands were quantitated from digital images using a UVP phosphoimager (Upland, Calif.).

Experiment [3] deals with MDCK cells. Description: Inhibition of HGF-dependent scattering in MDCK cells. It is filed as cell-based, canine. To be noted: HGF 20 ng/ml, 48 h. The protocol:
MDCK cells were grown to 100% confluency on the coverslips in six-well plates and washed twice with PBS. The confluent coverslips were then aseptically transferred to new six well plates containing 900 μl serum free DMEM. Norleual, Hinge peptide, and/or HGF (20 ng/ml) were added to appropriate wells. Control wells received PBS vehicle. Plates were incubated at 37° C. with 5% CO2 for 48 h. Media was removed and cells were fixed with methanol. Cells were stained with Diff-Quik Wright-Giemsa (Dade-Behring, Newark, Del.) and digital images were taken. Coverslips were removed with forceps and more digital images were captured. Pixel quantification of images was achieved using Image J and statistics were performed using Prism 5 and InStat v.3.05 (GraphPad; San Diego, Calif.).

The subject of experiment [4] is MDCK cells. Description: HGF-dependent MDCK cell proliferation (MTT). It counts as cell-based, canine. To be noted: analogs at 10^−10M, HGF 10 ng/ml, 4 days. The protocol: 5000 MDCK cells were seeded into the wells of a 96 well plates in 10% FBS DMEM. To induce cellular quiescence, the cells were serum deprived for 24 h prior to initiating the treatments. Following serum starvation, 10 ng/ml HGF alone and with various concentrations of 6-AH analogs or PBS vehicle were added to the media. The cells were allowed to grow under these conditions for 4 days with a daily addition of 6-AH analogs. On the fourth day, 1 mg/ml of […] (MTT, Sigma-Aldrich) prepared in PBS was added to the cells and incubated for 4 h. Dimethyl sulfoxide diluted in a 0.01M glycine buffer was added to solubilize the cell membranes and the absorbance of reduced MTT in the buffer was quantitated at 590 nm using a plate reader (Biotek Synergy 2, Winooski, Vt.). HGF-dependent proliferation was determined by subtracting the basal proliferation (in the absence of HGF) from total proliferation rates in groups containing HGF.

The subject of another experiment is rats. Description: Morris water maze with i.c.v. Dihexa and HGF antagonist Hinge. It counts as in vivo, rat.
The next experiment has as its system scopolamine treated rats. Description: Morris water maze, scopolamine amnesia model. To be noted: Hinge 20 ng ICV; Dihexa 2 mg/kg orally; scopolamine 70 μg ICV.
Experiment [5] relates to hippocampal neurons. Description: Spinogenesis in mRFP-β-actin transfected dissociated hippocampal neurons. It counts as cell-based, rat. As for the experimental part:
(§1) Hippocampal neurons (2×10^5 cells per square cm) were cultured from P1 Sprague Dawley rats on plates coated with poly-L-lysine from Sigma (St. Louis, Mo.; molecular weight 300,000). Hippocampal neurons were maintained in Neurobasal A media from Invitrogen (Carlsbad, Calif.) supplemented with B27 from Invitrogen, 0.5 mM L-glutamine, and […] cytosine-D-arabinofuranoside from Sigma added at 2 days in vitro. Hippocampal neurons were then cultured a further 3-7 days, at which time they were either transfected or treated with various pharmacological reagents as described in (Wayman, Davare et al. 2008).
(§2) Neurons were transfected with mRFP-β-actin on day in vitro 6 (DIV6) using LipofectAMINE™ 2000 (Invitrogen) according to the manufacturer's protocol. This protocol yielded the desired 3-5% transfection efficiency thus enabling the visualization of individual neurons. Higher efficiencies obscured the dendritic arbor of individual neurons. Expression of fluorescently tagged actin allowed clear visualization of dendritic spines, as dendritic spines are enriched in actin. […] On DIV 12 the neurons were fixed (4% paraformaldehyde, 3% sucrose, 60 mM PIPES, 25 mM HEPES, 5 mM EGTA, 1 mM MgCl2, pH 7.4) for 20 min at room temperature and mounted. Slides were dried for at least 20 hours at 4° C. and fluorescent images were obtained with Slidebook 4.2 Digital Microscopy Software driving an Olympus IX81 inverted confocal microscope with a 60× oil immersion lens, NA 1.4 and resolution 0.280 μm Dendritic spine density was measured on primary and secondary dendrites at a distance of at least 150 μm from the soma. Five 50 μm long segments of dendrite from at least 10 neurons per data point were analyzed for each data point reported. Each experiment was repeated at least three times using independent culture preparations. Dendrite length was determined using the National Institutes of Health's Image J 1.41o program (NIH, Bethesda, Md.) and the neurite tracing program Neuron J (Meijering, Jacob et al. 2004) Spines were manually counted.
as §1, with “centimeter)” for “cm)”, “P1-2” for “P1”, “the text or figure legends.” for “(Wayman, Davare et al. 2008).”
as §2, with “DIV12” for “DIV 12”, “Dendrite length was determined using the National Institutes of Health's Image J 1.41o program (NIH, Bethesda, Md.) and the neurite tracing program Neuron J (Meijering, Jacob et al. 2004) Spines were manually counted.” left out

Experiment [6] relates to hippocampal neurons. The experiment can be described thus: Whole-cell recordings of mEPSCs in dissociated hippocampal neurons. To be noted: 10^−12 M (each), 5 days. It counts as cell-based, rat. Set-up: unit not given beside the values.
[7] abbreviates: aCSF followed by Hinge, no scopolamine.

The Ki is the equilibrium dissociation constant of an inhibitor or competing ligand from its target.

Entries after “also recorded” stand apart in the source; their conditions may differ. Counter-ions that a name gives are not always drawn. Where a SMILES comes first, the peptide text is derived from it. [ ]: non-standard residue; d: D form. dNle = CCCC[C@@H](N)C(=O)O; Ahx = NCCCCCC(=O)O

T1 sequence (P14210 32-728): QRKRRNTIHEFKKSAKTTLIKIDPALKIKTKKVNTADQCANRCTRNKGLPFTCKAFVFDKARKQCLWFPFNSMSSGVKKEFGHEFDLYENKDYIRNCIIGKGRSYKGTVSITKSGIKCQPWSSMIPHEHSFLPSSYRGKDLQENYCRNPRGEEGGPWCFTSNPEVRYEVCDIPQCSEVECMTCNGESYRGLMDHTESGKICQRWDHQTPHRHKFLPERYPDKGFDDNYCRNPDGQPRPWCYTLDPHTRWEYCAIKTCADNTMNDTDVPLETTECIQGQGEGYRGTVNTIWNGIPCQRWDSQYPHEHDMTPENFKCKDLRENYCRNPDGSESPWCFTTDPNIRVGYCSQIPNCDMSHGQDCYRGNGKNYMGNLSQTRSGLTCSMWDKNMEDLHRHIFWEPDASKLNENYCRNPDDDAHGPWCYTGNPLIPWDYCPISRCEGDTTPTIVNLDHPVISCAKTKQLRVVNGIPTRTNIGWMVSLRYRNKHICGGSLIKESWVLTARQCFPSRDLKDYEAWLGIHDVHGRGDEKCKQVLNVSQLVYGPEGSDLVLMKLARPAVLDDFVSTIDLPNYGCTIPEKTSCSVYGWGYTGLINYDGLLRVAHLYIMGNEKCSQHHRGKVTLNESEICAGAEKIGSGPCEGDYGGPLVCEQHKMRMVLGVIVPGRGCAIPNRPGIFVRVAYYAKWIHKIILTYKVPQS
Description for scopolamine treated rats: Male Sprague-Dawley rats (Taconic derived) weighing 390-450 g were maintained with free access to water and food (Harland Tekland F6 rodent diet, Madison, Wis.) except the night prior to surgery when food was removed. Each animal was anesthetized with Ketamine hydrochloride plus Xylazine (100 and 2 mg/kg im. respectively; Phoenix Scientific; St. Joseph, Mo., and Moby; Shawnee, Kans.). […] The guide cannula measured 2.5 cm in overall length and was prepared with a heat bulge placed 2.5 mm from its beveled tip, thus acting as a stop to control the depth of penetration. Once in position, the cannula was secured to the skull with two stainless-steel screws and dental cement. Post-operatively the animals were housed individually in an American Accreditation for Laboratory Animal Care-approved vivarium maintained at 22±1° C. on a 12-h alternating light/dark cycle initiated at 06:00 h. All animals were hand gentled for 5 min per day during the 5-6 days of post-surgical recovery. Histological verification of cannula placement was accomplished by the injection of 5 μl fast-green dye via the guide cannula following the completion of behavioral testing.
A black circular platform (diameter: 12 cm; height: 24 cm) was placed 30 cm from the wall and submerged 2 cm below the water surface. The maze was operationally sectioned into four equal quadrants designated NW, NE, SW, and SE. For each rat the location of the platform was randomly assigned to one of the quadrants and remained fixed throughout the duration of training. Entry points were at the quadrant corners (i.e. N, S, E, and W) and were pseudo-randomly assigned such that each trial began at a different entry point than the preceding trial. Three of the four testing room walls were covered with extra-maze spatial cues consisting of different shapes (circles, squares, triangles) and colors. The swimming path of the animals was recorded using a computerized video tracking system (Chromotrack; San Diego Instruments, CA). […] Swim speed was determined from these values.
Each member of the treatment groups in the scopolamine studies received an icy injection of scopolamine hydrobromide (70 nmol in 2 μl aCSF over a duration of 20 s) 30 min prior to testing followed by Dihexa 10 min prior to testing. Control groups received scopolamine or aCSF 20 min prior to testing followed by aCSF 10 min prior testing. […] The rats in the aged rat study on received Dihexa of aCSF (control group). Briefly, acquisition trials were conducted on 8 consecutive days with 5 trials/day. On the first day of training the animal was placed on the platform for 30 s prior to the first trial. Trials commenced with the placement of the rat facing the wall of the maze at one of the assigned entry points. […] Once the animal located the platform it was permitted a 30 s rest period on the platform. […] The next trial commenced immediately following the rest period.
Following day 8 of acquisition training, one additional trial was conducted during which the platform was removed (probe trial). […] Total time spent within the target quadrant where the platform had been located during acquisition and the number of crossings of that quadrant was recorded.

As for `CCCC[C@@H](N)C(=O)N[C@@H](CCSC)C(=O)N[C@H](C(=O)NCCCCCC(N)=O)[C@@H](C)CC` [D-Nle-Met-Ile-NH—(CH2)5—CONH2] (H-[dNle]MI[Ahx]-NH2), the affinity at human HGF [1], expressed as Ki, was 138 nM. Also, the results for the “Inhibition of HGF-dependent Met phosphorylation” value in the experiment on Met and in the experiment on Met (listed as Met) were “no ability to effect on Met activation” and “not different than the HGF group”, respectively. On human HGF [2], the “Inhibition of HGF dimerization” value is “unable to block dimerization at the concentration tested”. The “Inhibition of HGF-dependent MDCK cell scattering” value in the experiment on MDCK cells [3] is “not different”.
`CCCC[C@@H](N)C(=O)N[C@@H](Cc1c[nH]c2ccccc12)C(=O)N[C@H](C(=O)NCCCCCC(N)=O)[C@@H](C)CC` [D-Nle-Trp-Ile-NH—(CH2)5—CONH2] (H-[dNle]WI[Ahx]-NH2) came in with a Ki on human HGF [1] of 3.37 nM. Moreover, the “Inhibition of HGF-dependent Met phosphorylation” value in the experiment with Met is “intermediate inhibitory activity”. In addition, the “Inhibition of HGF dimerization” value at human HGF [2] is given as “intermediate inhibition of dimerization”; on human HGF [2] (listed as Trp), “statistically different than the HGF treated group”. For the same compound, the “Inhibition of HGF-dependent MDCK cell scattering” value in the experiment with MDCK cells [3] is “different from the HGF alone group but not different from the control group”. The “Inhibition of HGF-dependent MDCK cell proliferation” value with MDCK cells [4] is reported as “showed inhibitory activity, albeit less than that observed with the most potent analogs”.
Consider `CN1[C@@H]2C[C@@H](OC(=O)[C@H](CO)c3ccccc3)C[C@H]1[C@@H]1O[C@@H]12` [scopolamine, scopolamine hydrobromide], for which, in the experiment with rats (scopolamine treated rats), the “Mean latency to find the pedestal, day one” value is 114.7 s; the “Mean latency to find the pedestal, final day (day 8)” value amounted to 84.8 s; the “Mean latency to find the pedestal, fourth day” value turned out to be 102.4 s.
Turning to “DYIRNC (Synthetic hinge peptide) [novel HGF antagonist; peptide representing the dimerization domain (hinge region) of HGF; KDYIRN in b79]”, the “Effect on learning in the water maze” value in the experiment on rats (Hinge alone) is “no effect on learning”. Also, in the experiment on rats (setting [7]), the “Mean latency to find the pedestal, day one” value came to 111.1 s; the “Mean latency to find the pedestal, final day (day 8)” value is 46.1 s; the “Mean latency to find the pedestal, fourth day” value is reported as 78.3 s. For the same compound, the “Blockade of Dihexa's reversal of scopolamine cognitive dysfunction” value with scopolamine treated rats is “blocked”. The “Inhibition of Dihexa-induced spinogenesis” value in the experiment on hippocampal neurons [5] (Hinge 10^−12 M, Dihexa 10^−12 M) is given as “did effectively inhibit spine formation; also recorded: inhibits Dihexa-induced spinogenesis; also recorded: inhibits Dihexa induced spinogenesis”. The “Inhibition of HGF-induced spinogenesis” value in the experiment on hippocampal neurons [5] (Hinge 10^−12 M, HGF 10 ng/ml) is “did effectively inhibit spine formation; also recorded: inhibits HGF-induced spinogenesis; also recorded: inhibits HGF induced spinogenesis”. Moreover, the “Inhibition of Nle1-AngIV-induced spinogenesis” value in the experiment on hippocampal neurons [5] (Hinge 10^−12 M, Nle1-AngIV 10^−12 M) was “did effectively inhibit spine formation; also recorded: inhibits Nle1-AngIV-induced spinogenesis; also recorded: inhibits Nle^1-AngIV induced spinogenesis”. Besides, the “Effect on basal spinogenesis” value with hippocampal neurons [5] (Hinge alone, wide range of doses) is on record as “no effect on spinogenesis over a wide range of doses; also recorded: does not affect spinogenesis; also recorded: had no effect on basal spine levels”. The same compound displayed a mEPSC mean frequency in the experiment with hippocampal neurons [6] of 4.51±0.47.
